Assay results published in PubChem BioAssay (NCI).
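Method: 48-hour compound exposure of cells in 96-well plates, five concentrations, linear interpolation of endpoints. TGI is the concentration that stops growth completely.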 Where a SMILES comes first, the peptide text is derived from it. The star is where a group is joined. Fmoc = O=C(OCC1c2ccccc2-c2ccccc21)*; OtBu = CC(C)(C)O*

Tests used:
Test in all cases: DTP human tumour cell line panel, 48 h
[1] = system: MCF7 breast
[2] = system: 786-0 renal
[3] = system: NCI-H23 lung
[4] = system: DU-145 prostate
[5] = system: MDA-MB-435
[6] = system: NCI-H522 lung
[7] = system: IGROV1 ovarian
[8] = system: SK-MEL-2 melanoma
[9] = system: HL-60(TB) leukemia
[10] = system: SN12C renal
[11] = system: SNB-75 CNS
[12] = system: MALME-3M melanoma
[13] = system: SK-OV-3 ovarian
[14] = system: COLO 205 colon
[15] = system: OVCAR-3 ovarian
[16] = system: SW-620 colon
[17] = system: OVCAR-4 ovarian

`CCOC(=O)C(C(=O)OCC)=C1SC(=Nc2ccccc2)C(=Nc2ccccc2)N1c1ccccc1` was tested, and the TGI [1] was greater than 100 µM, the TGI [2] was greater than 100 µM and the TGI [3] was greater than 100 µM. It also gave a TGI [4] greater than 100 µM, a TGI [5] greater than 100 µM and a TGI [6] greater than 100 µM. It also gave a TGI [7] greater than 100 µM, a TGI [8] greater than 100 µM and a TGI [9] greater than 100 µM. For the same compound, the TGI [10] was greater than 100 µM, the TGI [11] was greater than 100 µM and the TGI [12] was greater than 100 µM. The TGI [13] was greater than 100 µM, the TGI [14] was greater than 100 µM and the TGI [15] was greater than 100 µM.
`O=C1NC2c3c(I)sc(I)c3C(=O)C2O1` (stereo not given) was tested, and the TGI [1] was 13.7 µM, the TGI [2] was 20.9 µM and the TGI [3] was 16.6 µM. For the same compound, the TGI [4] was 31 µM, the TGI [5] was 17.5 µM and the TGI [6] was 3.16 µM. For the same compound, the TGI [7] was 8.01 µM, the TGI [8] was 15.3 µM and the TGI [9] was greater than 31.6 µM. For the same compound, the TGI [10] was 51.5 µM, the TGI [11] was 25.8 µM and the TGI [16] was 9.76 µM. The TGI [17] was 23 µM, the TGI [12] was 6.88 µM and the TGI [13] was 31.5 µM. The TGI [15] was 11.1 µM.
`Cc1cc(S(=O)(=O)NC2=NCc3nc4ccccc4n32)c(S)cc1Cl` was tested, and the TGI [1] was 70.1 µM, the TGI [2] was 47.8 µM and the TGI [4] was greater than 100 µM. For the same compound, the TGI [5] was 82.8 µM, the TGI [6] was greater than 100 µM and the TGI [7] was 69.7 µM. It also gave a TGI [8] of 29.2 µM, a TGI [9] of 51.8 µM and a TGI [10] of 51 µM. It also gave a TGI [11] of 60.4 µM, a TGI [16] greater than 100 µM and a TGI [17] of 83.2 µM. The TGI [12] was 56.2 µM, the TGI [14] was 34.4 µM and the TGI [15] was 40.3 µM.
In the case of `COC(=O)CCC(=O)c1ccc2c(c1)CCC2`, the TGI [1] is reported as greater than 100 µM, the TGI [2] is reported as greater than 100 µM and the TGI [3] is reported as greater than 100 µM. The TGI [4] was greater than 100 µM, the TGI [5] was greater than 100 µM and the TGI [6] was greater than 100 µM. The TGI [7] was greater than 100 µM, the TGI [8] was greater than 100 µM and the TGI [9] was greater than 100 µM. It also gave a TGI [11] greater than 100 µM, a TGI [16] greater than 100 µM and a TGI [17] greater than 100 µM. The TGI [12] was greater than 100 µM, the TGI [13] was greater than 100 µM and the TGI [15] was greater than 100 µM.
Work on `Cc1ccc2c(=O)cc(-c3sccc3C)[nH]c2n1` yielded a TGI [1] greater than 57.7 µM, a TGI [2] greater than 67.8 µM and a TGI [4] greater than 67.3 µM. The TGI [5] was greater than 100 µM, the TGI [7] was greater than 96 µM and the TGI [8] was greater than 40 µM. The TGI [9] was 0.743 µM, the TGI [10] was greater than 47.2 µM and the TGI [11] was greater than 100 µM. For the same compound, the TGI [17] was greater than 100 µM, the TGI [12] was greater than 69.1 µM and the TGI [13] was greater than 100 µM. It also gave a TGI [14] of 1.41 µM and a TGI [15] greater than 100 µM.
`CC1CC(N)=C(C#N)C1(C#N)C#N` (stereo not given) showed a TGI [1] greater than 100 µM, a TGI [2] greater than 100 µM and a TGI [3] greater than 100 µM. The TGI [4] was greater than 100 µM, the TGI [5] was greater than 100 µM and the TGI [6] was greater than 100 µM. For the same compound, the TGI [7] was greater than 100 µM, the TGI [8] was greater than 100 µM and the TGI [9] was greater than 100 µM. It also gave a TGI [10] greater than 100 µM, a TGI [11] greater than 100 µM and a TGI [16] greater than 100 µM. The TGI [12] was greater than 100 µM, the TGI [13] was greater than 100 µM and the TGI [14] was greater than 100 µM.
For `N#CC(c1ccccc1)N(CCCCCCN(C(=O)c1ccccc1)C(C#N)c1ccccc1)C(=O)c1ccccc1` (stereo not given), the TGI [1] was greater than 100 µM, the TGI [2] was greater than 100 µM and the TGI [3] was 73.8 µM. For the same compound, the TGI [4] was greater than 100 µM, the TGI [5] was 73.6 µM and the TGI [7] was greater than 100 µM. The TGI [8] was 66.3 µM, the TGI [9] was greater than 100 µM and the TGI [10] was greater than 100 µM. It also gave a TGI [11] greater than 100 µM, a TGI [16] greater than 100 µM and a TGI [17] of 91.2 µM. For the same compound, the TGI [12] was greater than 100 µM, the TGI [13] was greater than 100 µM and the TGI [14] was 39.8 µM. It also gave a TGI [15] greater than 100 µM.
Work on `COc1cc2c(cc1OC)OC(c1c(OC)ccc(OC)c1O)CC2` (stereo not given) yielded a TGI [1] greater than 100 µM, a TGI [2] greater than 100 µM and a TGI [3] greater than 100 µM. The TGI [4] was greater than 100 µM, the TGI [5] was greater than 100 µM and the TGI [7] was greater than 100 µM. It also gave a TGI [8] greater than 100 µM, a TGI [9] of 69.4 µM and a TGI [11] greater than 100 µM. The TGI [16] was greater than 100 µM, the TGI [17] was greater than 100 µM and the TGI [12] was greater than 100 µM. For the same compound, the TGI [13] was greater than 100 µM, the TGI [14] was greater than 100 µM and the TGI [15] was greater than 100 µM.
`CCCCN1C(=O)C2Cc3c([nH]c4ccccc34)C(c3cccc(O)c3)N2C1=O` (stereo not given) showed a TGI [1] of 36.2 µM, a TGI [2] of 34.4 µM and a TGI [3] of 37.9 µM. It also gave a TGI [4] of 33.1 µM, a TGI [5] of 32.4 µM and a TGI [6] of 39.9 µM. The TGI [7] was 31.3 µM, the TGI [8] was 32.9 µM and the TGI [9] was 46.2 µM. The TGI [10] was 32.5 µM, the TGI [11] was 32.7 µM and the TGI [16] was 38.7 µM. For the same compound, the TGI [17] was 34.6 µM, the TGI [13] was 30 µM and the TGI [14] was 39.5 µM. The TGI [15] was 30.2 µM.
For `OC1(C(Sc2cc(C(F)(F)F)cc(C(F)(F)F)c2)Sc2cc(C(F)(F)F)cc(C(F)(F)F)c2)C=CCCC1` (stereo not given), the TGI [1] was 4.58 µM, the TGI [2] was 8.09 µM and the TGI [3] was 8.66 µM. For the same compound, the TGI [4] was 8.99 µM, the TGI [5] was 7.03 µM and the TGI [6] was 5.75 µM. The TGI [7] was 8.56 µM, the TGI [9] was 3.97 µM and the TGI [10] was 6.77 µM. It also gave a TGI [11] of 10.8 µM, a TGI [16] of 7.74 µM and a TGI [17] of 7.06 µM. The TGI [12] was 8.81 µM, the TGI [13] was 11.3 µM and the TGI [14] was 5.59 µM. For the same compound, the TGI [15] was 6.14 µM.
With `Oc1c(Br)cc(/C=C/c2ccnc(/C=C/c3cc(Br)c(O)c(Br)c3)c2)cc1Br` the TGI [1] was 60.3 µM, the TGI [2] was 35.3 µM and the TGI [4] was 39.1 µM. For the same compound, the TGI [5] was 63 µM, the TGI [7] was greater than 100 µM and the TGI [8] was 34.4 µM. The TGI [9] was 60.6 µM, the TGI [10] was greater than 100 µM and the TGI [11] was 58.5 µM. For the same compound, the TGI [16] was greater than 100 µM, the TGI [17] was 87.2 µM and the TGI [13] was greater than 100 µM. It also gave a TGI [14] of 59.9 µM and a TGI [15] of 53.1 µM.
Work on `CC(=O)c1nc2ccccc2n1C(C)C(=O)c1ccccc1` (stereo not given) yielded a TGI [1] greater than 100 µM, a TGI [2] greater than 100 µM and a TGI [3] greater than 100 µM. The TGI [4] was greater than 100 µM, the TGI [5] was greater than 100 µM and the TGI [6] was greater than 100 µM. It also gave a TGI [7] greater than 100 µM, a TGI [9] greater than 100 µM and a TGI [10] greater than 100 µM. For the same compound, the TGI [11] was greater than 100 µM, the TGI [16] was greater than 100 µM and the TGI [17] was greater than 100 µM. For the same compound, the TGI [12] was greater than 100 µM, the TGI [13] was greater than 100 µM and the TGI [14] was greater than 100 µM. For the same compound, the TGI [15] was greater than 100 µM.
Work on `CC(C)C(NC(=O)OCC1c2ccccc2-c2ccccc21)C(=O)NC(CCC(=O)OC(C)(C)C)C(=O)OC(C)(C)C` (stereo not given) (Fmoc-Val-Glu(OtBu)-OtBu; configuration not given here) yielded a TGI [1] greater than 100 µM, a TGI [2] greater than 100 µM and a TGI [3] greater than 100 µM. It also gave a TGI [4] greater than 100 µM, a TGI [5] greater than 100 µM and a TGI [6] greater than 100 µM. It also gave a TGI [7] greater than 100 µM, a TGI [9] greater than 100 µM and a TGI [10] greater than 31.6 µM. The TGI [11] was greater than 100 µM, the TGI [16] was greater than 100 µM and the TGI [17] was greater than 100 µM. The TGI [12] was greater than 100 µM, the TGI [13] was greater than 100 µM and the TGI [14] was greater than 31.6 µM. The TGI [15] was greater than 100 µM.
For `CCN1CCC(O)(c2ccc(Oc3ccc(Cl)cc3)cc2)C(C(=O)c2ccc(Oc3ccc(Cl)cc3)cc2)C1` (stereo not given), the TGI [1] was 19.9 µM, the TGI [2] was 12.3 µM and the TGI [3] was 25.7 µM. The TGI [4] was 34.3 µM, the TGI [5] was 38.8 µM and the TGI [6] was 12 µM. The TGI [7] was 23.5 µM, the TGI [8] was 36.9 µM and the TGI [9] was 4.46 µM. It also gave a TGI [10] of 26.9 µM, a TGI [11] of 26.2 µM and a TGI [16] of 50.9 µM. The TGI [17] was 32.7 µM, the TGI [12] was 35.6 µM and the TGI [13] was 38.9 µM. For the same compound, the TGI [14] was 27.4 µM.
